Test results as given in ChEMBL document CHEMBL1201862, “PubChem BioAssay data set” (2004).
Calls of active or inactive are those of the source.

Tests used:
Exodeoxyribonuclease V = Exodeoxyribonuclease V (Escherichia coli (strain K12), UniProt P04993+P07648+P08394); assay: E. coli RecBCD inhibitors, dose response, counter-screen for AddAB inhibitor project, absorbance, V66 E. coli, mutant T4 phage (AID 492957); format: functional, cell-based, Escherichia coli str. K-12 substr. MG1655
INS1 = assay: beta cell apoptosis inhibitors, cytokine rescue, dose response, luminescence, retest (AID 449756); format: functional, cell-based; conditions: Rattus norvegicus;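 further: cell death triggered by IL-1 beta plus TNF-alpha plus IFN-gamma mixture; protective hits raise ATP signal compared with cytokine alone wells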
[1] = Counterscreen for AddAB inhibitors: absorbance-based bacterial cell-based high throughput dose response assay for inhibitors of bacterial viability. [Related pubchem assays (depositor defined):AID435030, AID449728, AID449731, AID488942, AID488955, AID488956]; format: functional
Bcl-2-related protein A1 = target: T1, Bcl-2-related protein A1 (Mus musculus, UniProt Q07440); format: functional;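 further: confirmatory dose–response counterscreen on Bfl-1, used to check hits from a UBC13 polyubiquitin inhibitor campaign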
T1 sequence (Q07440 whole entry): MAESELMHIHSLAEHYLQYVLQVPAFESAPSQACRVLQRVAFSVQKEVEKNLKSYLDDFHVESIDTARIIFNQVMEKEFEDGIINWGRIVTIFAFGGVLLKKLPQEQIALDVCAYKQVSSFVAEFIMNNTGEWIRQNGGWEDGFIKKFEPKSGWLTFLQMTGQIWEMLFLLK

[2] = target: T2, Ubiquitin-conjugating enzyme E2 N (Homo sapiens, UniProt P61088); format: functional
T2 sequence (P61088 whole entry): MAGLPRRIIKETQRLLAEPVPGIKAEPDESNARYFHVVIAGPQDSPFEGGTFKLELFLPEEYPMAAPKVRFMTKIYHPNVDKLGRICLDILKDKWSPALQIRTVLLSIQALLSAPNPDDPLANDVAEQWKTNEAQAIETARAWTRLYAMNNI

[3] = target: T2, Ubiquitin-conjugating enzyme E2 N; format: functional; remark: listed apart in the source
Mu-type opioid receptor [4] = target: T3, Mu-type opioid receptor (Homo sapiens, UniProt P35372); assay: MOR antagonists, SAR follow-up, image-based (AID 2420); format: functional;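 further: compounds added before stimulation of receptor with agonist DAMGO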
[5] = target: T4, Delta-type opioid receptor (Homo sapiens, UniProt P41143); assay: DOR agonists, SAR follow-up, image-based (AID 2370); format: functional
[6] = target: T5, Kappa-type opioid receptor (Homo sapiens, UniProt P41145); assay: SAR analysis of small molecule agonists of the kappa opioid receptor via a luminescent beta-arrestin assay. [Related pubchem assays (depositor defined):AID1777, AID1786, AID1966, AID2133, AID2136, AID2348, AID2352, AID2357, AID2359, AID2370, AID2420, AID2478, AID2491, AID2492, AID2493, AID2497, AID2498, AID2500, AID449737, AID488822, AID488842]; format: functional
Mu-type opioid receptor [7] = target: T3, Mu-type opioid receptor; assay: MOR agonists by imaging, SAR follow-up, image-based (AID 2352); format: functional
[8] = target: T5, Kappa-type opioid receptor; assay: KOR agonist analogs, imaging readout, SAR follow-up, image-based (AID 2359); format: functional
[9] = target: T4, Delta-type opioid receptor; assay: DOR antagonists, SAR follow-up, image-based (AID 2357); format: functional
[10] = target: T5, Kappa-type opioid receptor; assay: KOR antagonists by imaging, SAR follow-up, image-based (AID 2348); format: functional
Cytochrome P450 2D6 [11] = target: T6, Cytochrome P450 2D6 (Homo sapiens, UniProt P10635);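 further: CYP2D6 member of a cytochrome P450 panel assay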
Cytochrome P450 2D6 [12] = target: T6, Cytochrome P450 2D6; remark: listed apart in the source
[13] = cytotoxicity in HMLE control line with eGFP shRNA, dose response, counter-screen for HMLE_sh_ECad selective toxicity project, cell-based, HMLE_sh_eGFP, luminescence (AID 463074); format: functional, Homo sapiens;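 further: HMLE human mammary epithelial cells expressing control shRNA against eGFP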
[14] = Luminescence Cell-Based Dose Retest to Confirm Inhibitors of Cancer Stem Cells. [Related pubchem assays (depositor defined):AID2717, AID2721]; format: functional; conditions: Homo sapiens

T5 sequence (P41145 whole entry): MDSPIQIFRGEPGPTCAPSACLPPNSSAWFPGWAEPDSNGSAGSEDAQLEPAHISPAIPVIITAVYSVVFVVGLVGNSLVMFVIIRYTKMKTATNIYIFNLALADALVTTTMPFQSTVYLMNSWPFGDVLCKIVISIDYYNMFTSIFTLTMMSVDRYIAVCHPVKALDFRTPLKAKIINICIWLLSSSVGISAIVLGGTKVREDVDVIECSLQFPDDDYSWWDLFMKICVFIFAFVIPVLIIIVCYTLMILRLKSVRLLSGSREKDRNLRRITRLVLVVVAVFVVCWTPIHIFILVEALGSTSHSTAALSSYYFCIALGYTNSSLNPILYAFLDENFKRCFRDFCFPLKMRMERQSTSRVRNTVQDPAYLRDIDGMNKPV
T6 sequence (P10635 whole entry): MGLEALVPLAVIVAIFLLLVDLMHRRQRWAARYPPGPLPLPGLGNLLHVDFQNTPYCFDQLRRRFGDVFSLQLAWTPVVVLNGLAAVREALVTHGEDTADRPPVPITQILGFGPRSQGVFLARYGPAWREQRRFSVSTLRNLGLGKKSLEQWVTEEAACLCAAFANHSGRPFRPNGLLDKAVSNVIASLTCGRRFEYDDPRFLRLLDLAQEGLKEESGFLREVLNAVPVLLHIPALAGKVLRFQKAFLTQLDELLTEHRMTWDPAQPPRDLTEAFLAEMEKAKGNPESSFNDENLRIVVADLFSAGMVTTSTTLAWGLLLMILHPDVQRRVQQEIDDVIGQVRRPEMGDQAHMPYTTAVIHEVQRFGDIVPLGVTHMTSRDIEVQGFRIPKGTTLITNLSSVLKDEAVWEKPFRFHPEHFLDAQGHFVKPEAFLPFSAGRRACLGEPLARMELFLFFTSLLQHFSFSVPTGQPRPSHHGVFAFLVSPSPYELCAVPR
T4 sequence (P41143 whole entry): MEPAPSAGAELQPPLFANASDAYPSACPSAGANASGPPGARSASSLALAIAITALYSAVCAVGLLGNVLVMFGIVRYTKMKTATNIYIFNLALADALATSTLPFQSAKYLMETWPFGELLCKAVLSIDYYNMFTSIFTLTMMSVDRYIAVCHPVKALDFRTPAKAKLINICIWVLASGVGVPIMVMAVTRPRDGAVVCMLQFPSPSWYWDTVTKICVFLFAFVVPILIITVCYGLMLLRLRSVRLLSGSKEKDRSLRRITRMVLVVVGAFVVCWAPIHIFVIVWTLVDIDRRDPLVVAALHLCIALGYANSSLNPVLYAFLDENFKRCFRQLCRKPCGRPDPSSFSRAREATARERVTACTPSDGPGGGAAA
T3 sequence (P35372 whole entry): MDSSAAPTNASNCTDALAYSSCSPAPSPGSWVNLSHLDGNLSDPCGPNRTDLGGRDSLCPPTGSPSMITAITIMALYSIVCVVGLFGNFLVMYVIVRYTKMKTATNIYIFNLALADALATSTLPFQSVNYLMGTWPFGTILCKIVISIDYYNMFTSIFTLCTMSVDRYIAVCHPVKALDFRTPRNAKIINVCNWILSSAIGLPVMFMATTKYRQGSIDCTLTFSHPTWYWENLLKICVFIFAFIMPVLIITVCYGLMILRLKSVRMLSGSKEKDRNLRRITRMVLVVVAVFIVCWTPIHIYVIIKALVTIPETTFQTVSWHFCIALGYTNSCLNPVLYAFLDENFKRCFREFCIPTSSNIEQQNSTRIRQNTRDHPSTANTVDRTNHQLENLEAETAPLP
Sequence of Exodeoxyribonuclease V (P04993 whole entry): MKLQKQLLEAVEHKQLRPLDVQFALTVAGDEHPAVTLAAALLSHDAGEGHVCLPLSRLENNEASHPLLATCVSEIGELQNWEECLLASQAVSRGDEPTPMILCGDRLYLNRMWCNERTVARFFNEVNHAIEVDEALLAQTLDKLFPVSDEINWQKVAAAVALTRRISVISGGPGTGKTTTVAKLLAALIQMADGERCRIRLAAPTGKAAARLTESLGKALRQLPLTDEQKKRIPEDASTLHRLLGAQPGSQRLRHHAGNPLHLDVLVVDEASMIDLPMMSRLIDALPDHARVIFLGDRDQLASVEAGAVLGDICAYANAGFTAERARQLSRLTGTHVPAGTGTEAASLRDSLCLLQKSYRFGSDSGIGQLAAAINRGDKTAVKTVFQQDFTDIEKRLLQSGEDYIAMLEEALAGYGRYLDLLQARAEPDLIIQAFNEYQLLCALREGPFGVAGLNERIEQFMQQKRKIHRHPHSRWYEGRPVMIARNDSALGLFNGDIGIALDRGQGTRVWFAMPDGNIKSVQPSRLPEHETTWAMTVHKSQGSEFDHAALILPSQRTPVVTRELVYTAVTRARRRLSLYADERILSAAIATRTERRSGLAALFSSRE
Sequence of Exodeoxyribonuclease V (P07648 whole entry): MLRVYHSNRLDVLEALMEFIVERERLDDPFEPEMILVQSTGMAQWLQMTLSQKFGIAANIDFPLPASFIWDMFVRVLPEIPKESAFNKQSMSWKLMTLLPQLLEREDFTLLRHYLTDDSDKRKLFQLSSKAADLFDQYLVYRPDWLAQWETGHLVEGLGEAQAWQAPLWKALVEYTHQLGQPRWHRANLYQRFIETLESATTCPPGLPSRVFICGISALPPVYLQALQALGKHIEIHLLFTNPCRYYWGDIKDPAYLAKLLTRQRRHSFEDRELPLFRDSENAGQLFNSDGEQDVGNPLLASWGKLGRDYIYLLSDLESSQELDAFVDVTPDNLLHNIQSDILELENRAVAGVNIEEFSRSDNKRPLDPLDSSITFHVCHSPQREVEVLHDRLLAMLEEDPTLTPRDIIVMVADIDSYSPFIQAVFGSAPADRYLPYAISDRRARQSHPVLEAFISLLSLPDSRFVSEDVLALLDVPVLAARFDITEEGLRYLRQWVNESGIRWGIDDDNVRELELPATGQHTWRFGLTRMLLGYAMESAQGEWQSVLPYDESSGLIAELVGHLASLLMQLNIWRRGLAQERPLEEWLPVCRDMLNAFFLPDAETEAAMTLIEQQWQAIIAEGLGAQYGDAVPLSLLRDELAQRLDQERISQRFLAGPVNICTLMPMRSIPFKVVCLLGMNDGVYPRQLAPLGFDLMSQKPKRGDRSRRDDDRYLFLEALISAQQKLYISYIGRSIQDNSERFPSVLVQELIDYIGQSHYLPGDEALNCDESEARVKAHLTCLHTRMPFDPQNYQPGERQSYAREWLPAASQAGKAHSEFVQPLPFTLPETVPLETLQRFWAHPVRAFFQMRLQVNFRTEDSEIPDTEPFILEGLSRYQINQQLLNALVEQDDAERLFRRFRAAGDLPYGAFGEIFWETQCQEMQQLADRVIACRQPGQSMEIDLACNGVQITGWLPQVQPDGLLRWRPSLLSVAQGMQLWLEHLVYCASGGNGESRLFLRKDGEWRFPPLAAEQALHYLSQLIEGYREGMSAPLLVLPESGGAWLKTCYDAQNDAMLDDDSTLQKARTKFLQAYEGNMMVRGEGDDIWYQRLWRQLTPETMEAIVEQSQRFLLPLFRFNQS
Sequence of Exodeoxyribonuclease V (P08394 whole entry): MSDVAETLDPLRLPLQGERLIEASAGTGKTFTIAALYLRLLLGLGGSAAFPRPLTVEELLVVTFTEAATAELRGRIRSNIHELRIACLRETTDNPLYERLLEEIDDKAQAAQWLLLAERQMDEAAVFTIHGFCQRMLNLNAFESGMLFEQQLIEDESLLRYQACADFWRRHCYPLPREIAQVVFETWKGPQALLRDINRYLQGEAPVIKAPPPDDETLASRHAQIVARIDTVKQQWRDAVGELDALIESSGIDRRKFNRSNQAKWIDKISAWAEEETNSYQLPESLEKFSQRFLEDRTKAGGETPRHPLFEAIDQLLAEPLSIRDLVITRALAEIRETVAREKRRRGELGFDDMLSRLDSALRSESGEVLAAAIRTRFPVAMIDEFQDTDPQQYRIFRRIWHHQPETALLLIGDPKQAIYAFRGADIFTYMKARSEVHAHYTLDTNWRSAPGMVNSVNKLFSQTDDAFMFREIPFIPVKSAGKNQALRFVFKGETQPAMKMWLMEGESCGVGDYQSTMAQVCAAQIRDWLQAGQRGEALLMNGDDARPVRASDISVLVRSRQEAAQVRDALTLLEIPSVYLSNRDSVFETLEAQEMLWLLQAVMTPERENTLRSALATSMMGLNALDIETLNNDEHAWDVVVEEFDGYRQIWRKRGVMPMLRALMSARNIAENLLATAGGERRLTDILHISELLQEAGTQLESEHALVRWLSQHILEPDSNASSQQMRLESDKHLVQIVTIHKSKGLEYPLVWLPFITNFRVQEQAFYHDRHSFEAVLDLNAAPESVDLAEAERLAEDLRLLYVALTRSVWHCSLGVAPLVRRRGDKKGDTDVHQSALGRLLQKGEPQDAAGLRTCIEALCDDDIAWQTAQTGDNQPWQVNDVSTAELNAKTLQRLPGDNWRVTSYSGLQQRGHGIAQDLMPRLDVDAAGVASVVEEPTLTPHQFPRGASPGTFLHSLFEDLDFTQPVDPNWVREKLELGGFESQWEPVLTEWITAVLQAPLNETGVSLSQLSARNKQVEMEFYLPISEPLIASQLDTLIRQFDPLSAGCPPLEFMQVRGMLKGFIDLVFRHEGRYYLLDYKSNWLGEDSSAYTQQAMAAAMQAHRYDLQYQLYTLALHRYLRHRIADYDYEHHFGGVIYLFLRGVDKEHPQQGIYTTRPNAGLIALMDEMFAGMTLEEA

For CCC[C@@H](CN1CCC[C@H]1CN1C(N)=NC[C@@H]1Cc1ccccc1)N1C[C@@H]([C@H](C)CC)N(CCCC2CCCC2)C1=N, the IC50 (Exodeoxyribonuclease V) was 15.2 µM (inactive), the AC50 (INS1) was 7.33 µM (active) and the IC50 [1] was 17.5 µM (inactive). The IC50 (Bcl-2-related protein A1) was > 20 µM (inactive), the IC50 [2] was 10.9 µM (active) and the IC50 [3] was 8.52 µM (active).

In the case of O=C(c1cnccn1)N(Cc1cccs1)C1(C(=O)NC2CCCCC2)CCCCC1, the IC50 (Mu-type opioid receptor [4]) is reported as > 32 µM (inactive), the EC50 [5] is reported as > 32 µM (inactive) and the EC50 [6] is reported as 0.444 µM (active). The EC50 (Mu-type opioid receptor [7]) was > 32 µM (inactive), the EC50 [8] was 0.141 µM (active) and the IC50 [9] was > 32 µM (inactive). The IC50 [10] was > 32 µM (inactive).

With CC(C)(C)c1o[nH]c(=O)c1C[C@H](N)C(=O)O the AC50 (Cytochrome P450 2D6 [11]) was “inconclusive” and the AC50 (Cytochrome P450 2D6 [12]) was 1.58 µM (inconclusive).

In the case of COc1ccc(-c2ccc3oc(-c4ccc(OC)cc4)c(C#CC4(O)CCCCC4)c3c2)cc1, the AC50 [13] is reported as 29.8 µM (active) and the AC50 [14] is reported as 5.32 µM (active).
